# Patent US9157087B2, “Inducible plant promoters and the use thereof” (University of Tennessee Research Foundation, priority 2012, dated 2015)
# Test system: transgenic soybean hairy roots
# Test: Inducibility of ppor RFP reporter by chemical treatments (SA, ethephon, MeJA) in transgenic soybean hairy roots
# Assay type: cell-based, soybean line TN02-275
# Settings: 4 mg/ml ethephon (ethylene releasing chemical), 3 days; listed as Promoter 2.3
sequence,measurement,value
"ATATAATTAAGT (listed as DNA, chemistry not fully specified) [Motif 2.3, 12 bp SCN-inducible promoter motif, tested as tetramerized repeat 5′ of a minimal CaMV 35S promoter]",Inducibility by Effectors ERE,induced to a much lower degree
